Results published in US5561131A, “Defaunation method” (Mallinckrodt Veterinary, Inc., priority 1991, dated 1996).

Key:
Sheep test: feed intake = format: in vivo
Procedure: (§1) In this trial the effect of defaunation by compounds 27, 30 and 37 (see Table 1) after 1 and 3 weeks were examined using penned sheep.
(§2) The compounds were each administered to two sheep as a single dose at 167 mg/kg body weight. Compositions containing each compound were prepared according to the method of Example 1. Sheep were penned and fed 1000 g/day of a chaffed oaten hay and Lucerne mixture (90/10). Protozoal and bacterial viabilities were monitored along with the feed intake of the sheep according to the methods taught in Examples 2, 3 and 7.

protozoa [1] = test: Sheep test: protozoal numbers; format: in vivo
Procedure: as §1, §2

rumen bacteria [2] = test: In vitro bacterial gas inhibition; format: cell-based; settings: at the concentration known to kill protozoa
Procedure: Compounds of Table 1 were also tested for toxicity bacteria. This involved removing protozoa from rumen liquor by centrifugation at 2,000 g for 5 minutes and collecting the bacterial rich supernatant. Nitrogen and energy substrate was added to the bacterial preparation which was then dispensed in triplicate 10 ml volumes over the same range of compound concentrations (50, 150, 250 and 500 ppm.) referred to in Example 2. Control tubes were placed after every second compound to enable the inhibition of gas resulting from the compound to be assessed. […] It can be seen that these compounds are selective in their mode of action, in that they are more toxic to protozoa than bacteria.

rumen bacteria [3] = test: Bacterial viability in sheep after administering defaunation compounds; format: in vivo; settings: gas production one week after dosing vs pre-dosing
Procedure: In order to establish what effect the compounds had on the viability of rumen bacteria, a sample of rumen liquor was collected prior to dosing of the compound. The sample was withdrawn under vacuum using a pre-warmed tube inserted into the rumen through a rumen cannula. The sample was collected in a pre-warmed (39° C.) flask, gassed with carbon dioxide and covered. Two-pre-warmed 30 ml centrifuge tubes were then filled with well mixed rumen liquor and centrifuged at 2000 rpm for 5 minutes. Half the volume of each tube was then poured into another pre-warmed tube without disturbing the sediment. Three lots of 10 ml of this rumen liquor were then pipetted into 15 ml tubes which contained 10 μL of urea solution (40% w/v and 300 μL of glucose solution (50% w/v). The urea and glucose acted as substrate for the bacteria. The tubes were then gassed with carbon dioxide, stoppered and placed in a water bath at 39° C. After 10 minutes a 5 ml glass syringe was secured into the stoppers (through which a hypodermic needle had been inserted) and the gas collected for five hours and recorded.
This bacterial viability measure was then repeated one week after dosing with each of the compounds referred to in Table 1. Defaunation compositions were prepared according to the method of Example 1. The amount of gas produced was then compared with the pre-dosing level. The criterion for classifying post-dosing bacterial viability is shown below:
Poor--reduction in post-dosing gas production relative to pre-dosing levels.
OK--post-dosing gas production the same as pre-dosing levels.
Good--increase in post-dosing gas production relative to pre-dosing levels.

[4] = Effect of defaunation compounds on feed intake of sheep; format: in vivo; settings: after dosing vs pre-dosing intake
Procedure: Sheep were allowed a minimum of three weeks to adapt to their ration of 900 g of oaten chaff and 100 g of Lucerne chaff. The pre-dosing level of intake for each animal was established from the mean of five days intake immediately prior to dosing. Any effects of administering the compound on feed intake was then determined by measuring the level of feed intake after dosing.
The criteria of classifying the effect on food intake are shown below.
Poor--greater than 50% reduction in feed intake during the first week after dosing.
Fair--greater than 50% reduction in feed intake on the day following dosing but less then 50% reduction one week after dosing.
OK--transient drop in feed intake which is less than 50% on the day after dosing.
Good--No reduction in feed intake following dosing.

[5] = Wool growth in defaunated sheep; format: in vivo; settings: 167 mg/kg; for Response To Defaun: clean wool growth defaunated vs refaunated
Procedure: (§3) Seven sheep each were defaunated using a dose rate of 167 mg/kg. Compounds were administered by first mixing with 20 ml of ethanol and then with 200 ml of centrifuged rumen liquor. This solution was then administered via a flexible stomach tube directly into the rumen. The sheep were fed with a ration of 90% oaten chaff and 10% Lucerne chaff at a rate of 1000 g per day. The sheep were maintained in a defaunated state by their isolation from faunated sheep to prevent the possibility of refaunation. The sheep were allowed to adjust for 3 weeks after administering the compound before any wool growth measurements were taken.
(§4) At the start of the wool growth measurement period, a 10 cm square area of wool was removed from both sides of the sheep. After four weeks the same area was reclipped and the wool retained for scouring at the end of the trial.
(§5) The sheep then had protozoa introduced back into their rumen and were allowed to adjust for three weeks. Similarly, during the second four week period, the wool was clipped from the same patch area. The wool harvested during the two four week trial periods was then scoured of wool wax and extraneous material and weighed.

protozoa [6] = test: Cattle defaunation; format: in vivo; settings: for Elimination of protozoa from cattle (in words): 332 mg/kg
Procedure: Four cattle each were defaunated using either compounds No. 27 or No. 37 at a dose rate of 332 mg/kg. The compounds were administered by firstly mixing with 100 mL of ethanol and then adding 400 mL of centrifuged rumen liquor. This mixture was then administered into the rumen of the animal using a stomach tube.

protozoa [7] = test: Pilot field testing: elimination of protozoal population in sheep; format: in vivo; settings: week 3, 167 mg/kg
rumen bacteria [8] = test: Sheep test: bacterial gas production; format: in vivo
Procedure: as §1, §2

rumen ciliate protozoa = test: Protozoal reduction in sheep; format: in vivo; parameters: concentration or dose not given beside the values; settings: one week after dosing, relative to predosing numbers
Procedure: Defaunation compositions were prepared according to the method of Example 1.
Prior to dosing of the compound, a sample of rumen liquor (200 ml) was withdrawn to establish basal numbers of protozoa.
The sample was collected using a stomach tube, inserted into the rumen via a rumen cannula (fistulated animals) or per esophagus (intact animals). After straining the sample was well mixed using a magnetic stirrer and a 0.5 ml sample was withdrawn and added to 49.5 ml of a crystal violet stain. Protozoa were counted using a microscope and a Hawksley counting chamber.
One week after administering the compound, another rumen liquor sample was collected (as described above) and examined for the presence of protozoa. Where rumen ciliate protozoa were undetectable, a reduction or inhibition value of 100% was recorded. In general, most compounds expressed a strong inhibitory effect on protozoal populations.

[9] = Pilot field testing: adverse effects and grazing behavior; format: in vivo; settings: sheep, 167 mg/kg
Procedure: In this trial the effect of defaunation agents after 1 and 2 weeks was examined in sheep in pilot field studies.
Thirty mature fine wooled merino weather sheep consuming a forage diet were given a single dose of either compound 27 or 37. The dose rate was 167 mg/kg and each compound was dispersed in 20 mL of ethanol and 200 mL of centrifuged rumen liquor. The compounds were then administered into the rumen using a flexible stomach tube.

protozoa [10] = test: Wool growth trial: protozoal number; format: in vivo; settings: sheep, defaunated period, 167 mg/kg
Procedure: as §3, §4, §5

| SMILES | Feed Intake (Sheep test: feed intake; 1 week after 167 mg/kg) [g/day] | Feed Intake (Sheep test: feed intake; 3 weeks after 167 mg/kg) [g/day] | Feed Intake (Sheep test: feed intake; pre-dose (baseline)) [g/day] | Protozoal Nos. (protozoa [1]; 1 week after 167 mg/kg) [per mL × 10^3] | Protozoal Nos. (protozoa [1]; 3 weeks after 167 mg/kg) [per mL × 10^3] | Protozoal Nos. (protozoa [1]; pre-dose (baseline)) [per mL × 10^3] | Bact. Gas Inhibition at the conc. required to kill protozoa (rumen bacteria [2]) | Bacterial Viability (rumen bacteria [3]) | Feed Intake [4] | Response To Defaun ([5]; sheep) | Elimination of protozoa from cattle (in words) (protozoa [6]) | Mean protozoal number (protozoa [6]; week 0, 332 mg/kg) [per mL × 10^3] | Mean protozoal number (protozoa [6]; week 4, 332 mg/kg) [per mL × 10^3] | Protozoal number (protozoa [7]) [per mL × 10^3] | Bacterial gas production (rumen bacteria [8]; 1 week after 167 mg/kg) [M1 per 5 hr] | Bacterial gas production (rumen bacteria [8]; 3 weeks after 167 mg/kg) [M1 per 5 hr] | Bacterial gas production (rumen bacteria [8]; pre-dose (baseline)) [M1 per 5 hr] | Protozoal Reduction (rumen ciliate protozoa) [%] | Adverse effects and grazing behavior [9] | Prot. Number (protozoa [10]) [per mL × 10^3] | further results |
| --- | --- | --- | --- | --- | --- | --- | --- | --- | --- | --- | --- | --- | --- | --- | --- | --- | --- | --- | --- | --- | --- |
| Cc1ccc(Nc2nc(Cl)nc(Cl)n2)cc1Cl [Compound 27, 2,4 dichloro-6-(3 chloro-4-methylanilino)-s-triazine] | 1000 | 1000 | 966 | 0 | 0 | 950 | 67 | Okay | Okay (transient drop, less than 50% at day 2) | 10.3 | able to eliminate protozoa from cattle | 220 | 0 | 0 | 3.5 | 3.8 | 2.9 | 100 | no adverse effects and grazing behavior was normal | 0 | Clean Wool Growth ([5]; sheep, defaunated period, 4 weeks, per midside patch): 1.753 g |
| Clc1nc(Cl)nc(Nc2ccccc2Cl)n1 [Compound 37, 2,4-dichloro-6-(2-chloroanilino)-1,3,5-triazine] | 930 | 820 | 1000 | 0 | 0 | 497 | 57 | Okay | Okay (transient drop, less than 50% at day 2) | 8.9 | able to eliminate protozoa from cattle | 313 | 0 | 0 | 1.9 | 3.4 | 1.8 | 100 | no adverse effects and grazing behavior was normal | 0 | Clean Wool Growth ([5]; 672 h): 1.773 g |
